Data set [1] has as its target T1, recombinant human NK1 receptors expressed in Chinese Hamster Ovary (CHO) cell membranes (Homo sapiens, UniProt P25103).
T1 construct: expressed in transfected cells; host or cells: Chinese Hamster Ovary (CHO) cells, membrane preparation
Nature of the data set: NK1-receptor binding affinity, displacement of [3H]-substance P. As to conditions: average of at least two determinations, [3H]substance P displacement; for Ki: read-out: pki (negative logarithm of the inhibition constant Ki) (converted). Here is the method:
CHO cell membranes were prepared by using a modification of the method described by Dam T and Quirion R (Peptides, 7:855-864, 1986). Thus ligand binding was performed in 0.4 ml of 50 mM HEPES, pH 7.4, containing 3 mM MnCl2, 0.02% BSA, 0.5 nM [^3H]Substance P (30÷56 Ci/mmol, Amersham), a final membrane concentration of 25 μg of protein/ml, and the test compounds. The incubation proceeded at room temperature for 40 min.
The affinity of the compound of the invention for NK1 receptor was determined using the NK1-receptor binding affinity method measuring in vitro by the compounds' ability to displace [3H]—substance P (SP) from recombinant human NK1 receptors expressed in Chinese Hamster Ovary (CHO) cell membranes. The affinity values are expressed as negative logarithm of the inhibition constant (Ki) of displacer ligands (pKi).
Background: Displacement assays read how much labelled ligand stays bound in the presence of the test substance.

The target of the next data set is T2, NK1 receptor (Meriones unguiculatus, UniProt Q5DUB1).
T2 construct: from tissue; host or cells: living gerbil, central nervous system (NK1 agonist infused into the cerebral ventricles)
T2 sequence (Q5DUB1 whole entry, the tested form may be a part): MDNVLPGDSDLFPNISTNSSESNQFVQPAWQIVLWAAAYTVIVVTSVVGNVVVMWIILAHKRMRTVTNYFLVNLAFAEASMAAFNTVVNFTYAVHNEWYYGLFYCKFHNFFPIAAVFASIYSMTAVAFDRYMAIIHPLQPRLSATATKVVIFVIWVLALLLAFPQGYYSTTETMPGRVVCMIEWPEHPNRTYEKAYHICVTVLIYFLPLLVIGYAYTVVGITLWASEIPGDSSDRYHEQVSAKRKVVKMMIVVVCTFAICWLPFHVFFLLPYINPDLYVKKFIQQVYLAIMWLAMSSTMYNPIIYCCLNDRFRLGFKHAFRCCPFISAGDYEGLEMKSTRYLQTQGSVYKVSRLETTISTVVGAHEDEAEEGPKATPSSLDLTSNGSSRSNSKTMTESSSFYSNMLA
Put plainly: gerbil foot tapping model (NK1 agonist icv). It is filed as in vivo. As to conditions: read-out: ED50 (dose required to inhibit by 50% the tapping induced by the NK1 agonist), oral administration, four hours before NK1 agonist 3 pmol icv. From the text: The action of the compounds of the invention at the NK1 receptor may be determined by using conventional tests.
The ability of the compounds of the invention to penetrate the central nervous system and to bind at the nk1 receptor may be determined using the gerbill foot tapping model as described by Rupniak & Williams, Eur. Jour. of Pharmacol., 1994.
The compound was orally administered and four hours later an NK1 agonist (e.g. delta-Aminovaler^6[Pro^9,Me-Leu^10]-substance P (7-11)) (3 pmol in 5 μicv) was infused directly in the cerebral ventricules of the animals. The duration of hind foot tapping induced by the NK1 agonist (e.g. delta-Aminovalery^6[Pro^9,Me-Leu^10]-substance P (7-11)) was recorded continuously for 3 min using a stopclock. […] Alternatively the compounds may be administered subcutaneously or intraperitoneally.

Counter-ions that a name gives are not always drawn.

T1 sequence (P25103 whole entry): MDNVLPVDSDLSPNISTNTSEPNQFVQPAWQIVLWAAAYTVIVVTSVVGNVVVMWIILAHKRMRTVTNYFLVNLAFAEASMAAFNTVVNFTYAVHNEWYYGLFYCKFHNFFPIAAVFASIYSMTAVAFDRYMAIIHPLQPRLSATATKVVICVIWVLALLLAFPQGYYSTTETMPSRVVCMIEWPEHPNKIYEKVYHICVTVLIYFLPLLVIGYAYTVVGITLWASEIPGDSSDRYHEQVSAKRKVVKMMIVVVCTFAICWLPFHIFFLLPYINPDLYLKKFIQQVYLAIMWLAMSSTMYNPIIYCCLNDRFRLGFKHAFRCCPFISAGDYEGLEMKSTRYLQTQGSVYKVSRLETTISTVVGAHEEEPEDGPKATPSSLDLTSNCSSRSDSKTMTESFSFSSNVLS

With “2-(R)-(4-Fluoro-2-methyl-phenyl)-4-(S)-piperazin-1-yl-piperidine-1-carboxylic acid, [1-(R)-(3,5-bis-trifluoromethyl-phenyl)-ethyl]-methylamide hydrochloride [Example 9]”, the “pki (negative logarithm of the inhibition constant Ki)” value in data set [1] was determined as 9.93.
In general, Ki refers to a dissociation constant, usually derived from enzyme kinetics or from competition with a known ligand. As to `Cc1cc(F)ccc1[C@H]1CC(N2CCN(C)CC2)CCN1C(=O)N(C)[C@H](C)c1cc(C(F)(F)F)cc(C(F)(F)F)c1` (mixture of isomers) [Example 8, 2-(R)-(4-Fluoro-2-methyl-phenyl)-4-(R,S)-(4-methyl-piperazin-1-yl)-piperidine-1-carboxylic acid, [1-(R)-(3,5-bis-trifluoromethyl-phenyl)-ethyl]-methylamide hydrochloride], the Ki in data set [1] was 0.209 nM.
As usually defined, the melting point is the temperature, or range, at which the solid turns liquid. As for `Cc1cc(F)ccc1[C@H]1CC(N2CCN(C)CC2)CCN1C(=O)N(C)Cc1cc(C(F)(F)F)cc(C(F)(F)F)c1.Cl.Cl` (mixture of isomers) [Example 10, 2-(R)-(4-Fluoro-2-methyl-phenyl)-4-(R,S)-(4-methyl-piperazin-1-yl)-piperidine-1-carboxylic acid, (3,5-bis-trifluoromethyl-benzyl)-methylamide dihydrochloride], the melting point lay within 208 to 209 °C. Further, the Ki in data set [1] was 0.115 nM.
Turning to `CC(=O)N1CCN([C@H]2CCN(C(=O)N(C)[C@H](C)c3cc(C(F)(F)F)cc(C(F)(F)F)c3)[C@@H](c3ccc(F)cc3C)C2)CC1.Cl` [Example 3, 4-(S)-(4-Acetyl-piperazin-1-yl)-2-(R)-(4-fluoro-2-methyl-phenyl)-piperidine-1-carboxylic acid, [1-(R)-(3,5-bis-trifluoromethyl-phenyl)-ethyl]-methylamide hydrochloride], the ED50 at NK1 receptor came out at 0.05 mg/kg.
As to `CC(=O)N1CCN([C@@H]2CCN(C(=O)N(C)Cc3cc(C(F)(F)F)cc(C(F)(F)F)c3)[C@@H](c3ccc(F)cc3C)C2)CC1` [Example 7a, 4-(R)-(4-Acetyl-piperazin-1-yl)-2-(R)-(4-fluoro-2-methyl-phenyl)-piperidine-1-carboxylic acid, (3,5-bis-trifluoromethyl-benzyl)-methylamide hydrochloride], in data set [1], the Ki is 0.708 nM.
`CC(=O)N1CCN([C@H]2CCN(C(=O)N(C)Cc3cc(C(F)(F)F)cc(C(F)(F)F)c3)[C@@H](c3ccc(F)cc3C)C2)CC1.Cl` [Example 7b, 4-(S)-(4-Acetyl-piperazin-1-yl)-2-(R)-(4-fluoro-2-methyl-phenyl)-piperidine-1-carboxylic acid, (3,5-bis-trifluoromethyl-benzyl)-methylamide hydrochloride]: the Ki in data set [1] was 0.0741 nM. In addition, the ED50 on NK1 receptor worked out at 0.19 mg/kg.
In the same order, the values of `Cc1cc(F)ccc1[C@H]1C[C@@H](N2CCN(C(=O)C3CC3)CC2)CCN1C(=O)N(C)[C@H](C)c1cc(C(F)(F)F)cc(C(F)(F)F)c1.Cl` [Example 12, 4-(S)-(4-Cyclopropanoyl-piperazin-1-yl)-2-(R)-(4-fluoro-2-methyl-phenyl)-piperidine-1-carboxylic acid, [1-(R)-(3,5-bis-trifluoromethyl-phenyl)-ethyl]-methylamide hydrochloride] are 0.123 nM and 0.27 mg/kg.
`Cc1cc(F)ccc1[C@H]1C[C@@H](N2CCN(C(=O)C(C)C)CC2)CCN1C(=O)N(C)[C@H](C)c1cc(C(F)(F)F)cc(C(F)(F)F)c1` [Example 14, 4-(S)-[4-(2-Methyl-propanoyl)-piperazin-1-yl]-2-(R)-(4-fluoro-2-methyl-phenyl)-piperidine-1-carboxylic acid, [1-(R)-(3,5-bis-trifluoromethyl-phenyl)-ethyl]-methylamide hydrochloride]: the Ki in data set [1] is 0.1 nM.
`Cc1cc(F)ccc1[C@H]1C[C@@H](N2CCN(C(=O)N(C)C)CC2)CCN1C(=O)N(C)Cc1cc(C(F)(F)F)cc(C(F)(F)F)c1` [Example 15, 4-(S)-[1-[(3,5-Bis-trifluoromethyl-benzyl)-methyl-carbamoyl]-2-(R)-(4-fluoro-2-methyl-phenyl)-piperidin-4-yl]-piperazine-1-carboxylic acid, dimethylamide hydrochloride]: in data set [1], the Ki was 0.0457 nM.
Still for that read-out and setting: for `CNC(=O)N1CCN([C@H]2CCN(C(=O)N(C)Cc3cc(C(F)(F)F)cc(C(F)(F)F)c3)[C@@H](c3ccc(F)cc3C)C2)CC1` [Example 16, 4-(S)-[1-[(3,5-Bis-trifluoromethyl-benzyl)-methyl-carbamoyl]-2-(R)-(4-fluoro-2-methyl-phenyl)-piperidin-4-yl]-1-carboxylic acid, methylamide hydrochloride] the value was 0.0437 nM; for `CC(=O)N1CCN([C@H]2CCN(C(=O)N(C)[C@H](C)c3cc(C(F)(F)F)cc(C(F)(F)F)c3)[C@@H](c3ccc(F)cc3)C2)CC1` [Example 19, 4-(S)-(4-Acetyl-piperazin-1-yl)-2-(R)-(4-fluoro-phenyl)-piperidine-1-carboxylic acid, [1-(R)-(3,5-bis-trifluoromethyl-phenyl)-ethyl]-methylamide hydrochloride], 0.417 nM.

Source of the values: patent publication US7294630B2, “Piperazinyl piperidine tachykinin antagonists” (SmithKline Beecham Corporation, priority 2000, dated 2007).
